Reference: patent US9855270B2, “Methods and compositions for modulating estrogen receptor mutants” (priority 2014, dated 2018)
Read-outs that look alike come from different tables or passages of the source.

Tests used:
Assay type in all cases: cell-based
[1] = tested on: MCF-7 cells (negative control); test: MCF-7 Stable Cell Line Viability (UbC HA-ER-α series); details: Receptor None (MCF-7 negative control); for EC50: Homo sapiens, MCF7, read-out: Potency (EC50; nM)
Outline: (§1)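 MCF-7 lines stably expressing N-terminal HA-tagged ESR1 (wild-type or mutant) from EF1 (puromycin-selected) or UbC (hygromycin-selected) lentiviral vectors, or empty vector, were seeded in phenol-free RPMI with 10% CSS.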

[2] = tested on: MCF-7 cells stably expressing UbC HA-ER-α wild-type; test: as above; details: UbC HA-ER-α Wild-type; for EC50: Homo sapiens, MCF7, read-out: Potency (EC50; nM); for Percent inhibition compared to vehicle: 5-Day Incubation; for Efficacy (Emax): Day 5 relative to Day 0
Outline: (§2)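 MCF-7 lines stably expressing N-terminal HA-tagged wild-type or mutant ER-α, under a high-expressing EF1 or a low-to-moderate UbC promoter, plus an empty-vector control, grown in phenol-free RPMI with 10% CSS. Compound given at 10 μM to 5 pM final for 5 days. CellTiter-Glo luminescence minus background, divided by the time-zero reading, gave relative proliferation.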

[3] = tested on: MCF-7 cells stably expressing EF1 HA-ER-α wild-type; test: MCF-7 Stable Cell Line Viability (EF1 HA-ER-α series); details: EF1 HA-ER-α Wild-type; for Percent inhibition compared to vehicle: 5-Day Incubation; for Efficacy (Emax): Day 5 relative to Day 0; for EC50: Homo sapiens, MCF7, read-out: Potency (EC50; nM)
Outline: as §2

[4] = tested on: MCF-7 cells transduced with an empty EF1 lentiviral vector (negative control); test: as above; details: for EC50: Homo sapiens, MCF7, Receptor None (empty EF1 lentiviral vector), read-out: Potency (EC50; nM); for Percent inhibition compared to vehicle / Efficacy (Emax): Receptor None (empty EF1 lentiviral vector); for Percent inhibition compared to vehicle: 5-Day Incubation; for Efficacy (Emax): Day 5 relative to Day 0
Outline: as §2

[5] = tested on: MCF-7 cells stably expressing EF1 HA-ER-α Y537N; test: cells; details: EF1 HA-ER-α Y537N; for Percent inhibition compared to vehicle: 5-Day Incubation; for Efficacy (Emax): Day 5 relative to Day 0; for EC50: Homo sapiens, MCF7, read-out: Potency (EC50; nM)
Outline: as §2

[6] = tested on: MCF-7 cells stably expressing EF1 HA-ER-α L536R; test: cells; details: EF1 HA-ER-α L536R; for Percent inhibition compared to vehicle: 5-Day Incubation; for Efficacy (Emax): Day 5 relative to Day 0; for EC50: Homo sapiens, MCF7, read-out: Potency (EC50; nM)
Outline: as §2

[7] = tested on: MCF-7 cells stably expressing EF1 HA-ER-α L536P; test: cells; details: EF1 HA-ER-α L536P; for Percent inhibition compared to vehicle: 5-Day Incubation; for Efficacy (Emax): Day 5 relative to Day 0; for EC50: Homo sapiens, MCF7, read-out: Potency (EC50; nM)
Outline: as §2

[8] = tested on: MCF-7 cells stably expressing UbC HA-ER-α L536P; test: cells; details: for EC50: Homo sapiens, MCF7, read-out: Potency (EC50; nM)
Outline: as §1

[9] = Agonist Mode, −E2, 5-Day Incubation
[10] = Agonist Mode, −E2, Day 5 relative to Day 0
[11] = Antagonist Mode, +E2, 5-Day Incubation
[12] = Antagonist Mode, +E2, Day 5 relative to Day 0
[13] = Antagonist Mode, −E2 (Table 27)

Compound: CC1=C(c2cccc(O)c2)[C@H](c2ccc(OCCN3CC(CF)C3)cc2)Oc2ccc(O)cc21 [Compound 4-23, (S)-2-(4-(2-(3-(fluoromethyl)azetidin-1-yl)ethoxy)phenyl)-3-(3-hydroxyphenyl)-4-methyl-2H-chromen-6-ol]
- EC50 ([1]; Agonist Mode, −E2): 0.227 ± 0.21 nM
- EC50 ([1]; Antagonist Mode, +E2): 0.378 ± 0.216 nM
- Percent inhibition compared to vehicle [1, 9]: 31%
- Efficacy (Emax) [1, 10]: 1.20 ± 0.27
- Percent inhibition compared to vehicle [1, 11]: 66%
- Efficacy (Emax) [1, 12]: 1.08 ± 0.04
- EC50 ([2]; Agonist Mode, −E2): 4.04 ± 8.01 nM
- EC50 ([2]; Antagonist Mode, +E2): 0.599 ± 0.3 nM
- Percent inhibition compared to vehicle ([2]; Agonist Mode, −E2): 39%
- Efficacy (Emax) ([2]; Agonist Mode, −E2): 1.13 ± 0.13
- Percent inhibition compared to vehicle ([2]; Antagonist Mode, +E2): 76%
- Efficacy (Emax) ([2]; Antagonist Mode, +E2): 1.20 ± 0.10
- Percent inhibition compared to vehicle ([3]; Agonist Mode, −E2): 62%
- Efficacy (Emax) ([3]; Agonist Mode, −E2): 2.17 ± 0.03
- Percent inhibition compared to vehicle ([3]; Antagonist Mode, +E2): 68%
- Efficacy (Emax) ([3]; Antagonist Mode, +E2): 2.17 ± 0.29
- EC50 ([3]; Antagonist Mode, +E2): 8.65 ± 10.5 nM
- EC50 [3, 13]: 2.13 ± 2.06 nM
- EC50 ([4]; Antagonist Mode, +E2): 2.81 ± 3.28 nM
- EC50 [4, 13]: 0.286 ± 0.294 nM
- Percent inhibition compared to vehicle ([4]; Agonist Mode, −E2): 52%
- Efficacy (Emax) ([4]; Agonist Mode, −E2): 1.06 ± 0.24
- Percent inhibition compared to vehicle ([4]; Antagonist Mode, +E2): 76%
- Efficacy (Emax) ([4]; Antagonist Mode, +E2): 0.96 ± 0.12
- Percent inhibition compared to vehicle ([5]; Agonist Mode, −E2): 88%
- Efficacy (Emax) ([5]; Agonist Mode, −E2): 0.74 ± 0.01
- Percent inhibition compared to vehicle ([5]; Antagonist Mode, +E2): 87%
- Efficacy (Emax) ([5]; Antagonist Mode, +E2): 0.70 ± 0.01
- EC50 ([5]; Antagonist Mode, +E2): 45.5 ± 51.7 nM
- EC50 [5, 13]: 16 ± 17.6 nM
- Percent inhibition compared to vehicle ([6]; Agonist Mode, −E2): 57%
- Efficacy (Emax) ([6]; Agonist Mode, −E2): 2.94 ± 0.34
- Percent inhibition compared to vehicle ([6]; Antagonist Mode, +E2): 60%
- Efficacy (Emax) ([6]; Antagonist Mode, +E2): 2.76 ± 0.50
- EC50 ([6]; Antagonist Mode, +E2): 53.3 ± 65.8 nM
- EC50 [6, 13]: 11.3 ± 9.22 nM
- Percent inhibition compared to vehicle ([7]; Agonist Mode, −E2): 62%
- Efficacy (Emax) ([7]; Agonist Mode, −E2): 3.11 ± 0.40
- Percent inhibition compared to vehicle ([7]; Antagonist Mode, +E2): 64%
- Efficacy (Emax) ([7]; Antagonist Mode, +E2): 3.25 ± 0.07
- EC50 ([7]; Antagonist Mode, +E2): 15.1 ± 13.6 nM
- EC50 [7, 13]: 4.78 ± 4.67 nM
- Percent inhibition compared to vehicle [8, 9]: 49%
- Efficacy (Emax) [8, 10]: 1.62 ± 0.13
- Percent inhibition compared to vehicle [8, 11]: 69%
- Efficacy (Emax) [8, 12]: 1.87 ± 0.27
- EC50 ([8]; Agonist Mode, −E2): 0.231 ± 0.104 nM
- EC50 ([8]; Antagonist Mode, +E2): 2.09 ± 0.425 nM
